Literature values as cited in US11168056B2, “Process for the manufacturing of (6aR,10aR)-7-propyl-6,6a,7,8,9,10,10a,11-octahydro-[1,3]dioxolo[4′,5′:5,6]benzo[1,2-G]quinoline and (4aR,10aR)-1-propyl-1,2,3,4,4a,5,10,10a-octahydro-benzo[G]quinoline-6,7-diol” (H. Lundbeck A/S, priority 2019, dated 2021).
Like-named read-outs stand apart in the source and are kept apart here.

What was measured:
[1] = tested on: animal models relevant for Parkinson's Disease; settings: various animal models
[2] = rats
[3] = man, after oral dosing
[4] = tested on: PD patients; settings: intravenous (IV)
[5] = rats; remark: listed apart in the source
[6] = tested on: rat hepatocytes
[7] = tested on: human hepatocytes

CCCN1CCC[C@@H]2CC3=C(CCCC3=O)C[C@H]21 [(Ia)]
efficacy in animal models relevant for Parkinson's Disease [1]: effective
conversion to the active compound (I) [2]: converted to the active compound (I)

CCCc1cc2c(s1)CN[C@@H]1CCc3cc(OC(C)=O)c(OC(C)=O)cc3[C@@H]21 [Adrogolide]
hepatic first-pass metabolism [3]: extensive
oral bioavailability [3]: ~4%
antiparkinson efficacy [4]: comparable to that of L-DOPA

CCCN1CCC[C@@H]2Cc3c(ccc(O)c3O)C[C@H]21 [compound (I), (4aR,10aR)-1-propyl-1,2,3,4,4a,5,10,10a-octahydro-benzo[g]quinoline-6,7-diol]
oral bioavailability [5]: low
efficacy in animal models relevant for Parkinson's Disease [1]: effective

CCCN1CCC[C@@H]2Cc3c(ccc4c3OCO4)C[C@H]21 [compound (Ib), (6aR,10aR)-7-propyl-6,6a,7,8,9,10,10a,11-octahydro-[1,3]dioxolo[4′,5′:5,6]benzo[1,2-g]quinoline]
conversion of compound (Ib) to compound (I) [6]: demonstrated
conversion of compound (Ib) to compound (I) [7]: demonstrated
efficacy in animal models relevant for Parkinson's Disease [1]: effective
